# Results published in paper PMC6952396, “Structural basis for itraconazole-mediated NPC1 inhibition” (Nature Communications, 2020).
# Values joined by “and” are separate entries in the source; they are usually repeats but may differ in a detail not shown here. Equal entries are not always repeated.
# Target: T1, NPC1 (Cricetulus griseus, UniProt Q9JLG3)
# T1 construct: CHO-7 cells in the medium are deprived of cholesterol to induce the LDL receptors biosynthesis; endogenous in cells; host or cells: CHO-7 cells
# T1 sequence (Q9JLG3 23-1277): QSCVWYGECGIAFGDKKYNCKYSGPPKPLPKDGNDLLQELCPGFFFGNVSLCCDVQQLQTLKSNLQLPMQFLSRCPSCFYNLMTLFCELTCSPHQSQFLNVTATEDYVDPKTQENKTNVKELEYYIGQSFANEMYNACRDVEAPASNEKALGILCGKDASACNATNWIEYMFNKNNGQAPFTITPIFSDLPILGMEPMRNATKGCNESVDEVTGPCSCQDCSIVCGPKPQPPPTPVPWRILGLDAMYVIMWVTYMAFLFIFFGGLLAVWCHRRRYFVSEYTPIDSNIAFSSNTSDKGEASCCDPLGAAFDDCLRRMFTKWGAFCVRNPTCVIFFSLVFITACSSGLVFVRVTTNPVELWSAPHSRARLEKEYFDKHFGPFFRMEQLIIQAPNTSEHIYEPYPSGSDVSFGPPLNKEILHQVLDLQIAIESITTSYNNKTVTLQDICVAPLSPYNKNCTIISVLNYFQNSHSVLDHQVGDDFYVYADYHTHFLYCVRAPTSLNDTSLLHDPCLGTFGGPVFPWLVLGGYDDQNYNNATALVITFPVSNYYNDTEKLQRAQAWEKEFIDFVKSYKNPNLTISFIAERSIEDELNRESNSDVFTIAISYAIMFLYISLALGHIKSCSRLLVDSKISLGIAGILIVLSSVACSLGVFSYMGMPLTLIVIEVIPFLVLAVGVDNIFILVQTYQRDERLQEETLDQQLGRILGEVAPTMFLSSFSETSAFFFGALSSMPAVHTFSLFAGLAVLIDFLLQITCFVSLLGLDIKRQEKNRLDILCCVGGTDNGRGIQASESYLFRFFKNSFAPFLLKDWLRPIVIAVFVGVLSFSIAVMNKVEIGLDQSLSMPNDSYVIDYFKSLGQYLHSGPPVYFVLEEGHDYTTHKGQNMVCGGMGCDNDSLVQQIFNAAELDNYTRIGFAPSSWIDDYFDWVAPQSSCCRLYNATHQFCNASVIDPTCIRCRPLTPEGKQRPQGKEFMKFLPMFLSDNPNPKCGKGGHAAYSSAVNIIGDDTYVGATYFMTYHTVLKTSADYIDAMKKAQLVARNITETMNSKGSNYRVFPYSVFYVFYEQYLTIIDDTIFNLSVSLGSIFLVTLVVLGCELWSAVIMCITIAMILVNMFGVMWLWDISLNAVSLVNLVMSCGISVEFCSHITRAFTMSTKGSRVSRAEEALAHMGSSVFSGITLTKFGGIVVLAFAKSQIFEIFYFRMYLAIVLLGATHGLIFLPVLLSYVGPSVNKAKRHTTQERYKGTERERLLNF
# Assay: Cholesterol re-esterification (ACAT) assay measuring NPC1-mediated export of cholesterol from lysosomes in CHO-7 cells
# Assay type: cell-based
# Settings: for cholesteryl [14C] oleate formed, Repeat 1 / cholesteryl [14C] oleate formed, Repeat 2: Fig. 2 source data; for cholesteryl [14C] oleate formed, Repeat 3 / cholesteryl [14C] oleate formed, Repeat 4: Supplementary Fig. 3 source data; for IC50: IC50 (concentration at which each compound inhibited cholesterol esterification by 50%), 10% FCS, 4 h then 2 h [14C] oleate pulse
# Description: Itraconazole has three chiral centers (Supplementary Fig. 2a). The pharmaceutical form contains four cis-stereoisomers in a 1:1:1:1 molar ratio (Supplementary Fig. 2a–d). To determine the activity of the cis-stereoisomers, the individual isomers were isolated and identified based on their optical rotation in chloroform following a previous report (Supplementary Fig. 2e)[26]. Then, they were separately tested in a cholesterol re-esterification assay used to measure NPC1-mediated export of cholesterol from lysosomes. Briefly, CHO-7 cells in the medium are deprived of cholesterol to induce the LDL receptors biosynthesis. The cells are then incubated with fetal calf serum (FCS) that contains LDL. The LDL-derived cholesterol will now be transported by functional NPC1 protein from the lysosome to the endoplasmic reticulum (ER). The acyl-CoA:cholesterol actyltransferase named ACAT can now re-esterify the cholesterol in the ER. Therefore, the cells were pulse-labeled with [^14C] oleate and we can measure the synthesis of cholesteroyl [^14C] oleate to evaluate the activity of NPC1 protein. Using this assay, we tested the ability of various itraconazole to inhibit NPC1 activity.
# Fig. 2 ACAT activity of itraconazole and ketoconazole in CHO-7 cells. On day 0, CHO-7 cells were set up in medium A with 5% LPDS at 2.5 × 10^5 cells/well in 6-well dish. On day 2, cells were switched to medium A with 5% LPDS containing 50 µM sodium compactin and 50 µM sodium mevalonate. On day 3 the cells received fresh medium B containing compactin and mevalonate with various concentration compounds in the presence of 10% FCS containing lipoproteins. After incubation for 4 h at 37 °C, each cell monolayer was pulse-labeled for 2 h with 0.1 mM sodium [^14C] oleate (5792 dpm/nmol). The cells were then harvested for measurement of their content of cholesteryl [^14C] oleate and [^14C] triglycerides, as described in Methods. […] Itraconazole mixture, isomer A (Supplementary Fig. 2a), isomer B (Supplementary Fig. 2b) and isomer C (Supplementary Fig. 2c) were added at final concentrations of 0.3 μM. The isomer D (Supplementary Fig. 2d), I-Br and ketoconazole were added at final concentrations of 1 μM. The biological repeats are shown as individual values. Source data are provided as a Source Data file.
# On day 0, cells were set up in medium A with 5% LPDS at 2.5 × 10^5 cells/well in six-well dish. On day 2, cells were switched to medium A with 5% LPDS containing 50 µM sodium compactin and 50 µM sodium mevalonate. On day 3 the cells received fresh medium B containing compactin and mevalonate with indicated concentration triazole compounds in the presence of 10% FCS containing lipoproteins. After incubation for 4 h at 37 °C, each cell monolayer was pulse-labeled for 2 h with 0.1 mM sodium [^14C] oleate (5792 dpm/nmol). The cells were then harvested for measurement of their content of cholesteryl [^14C] oleate and [^14C] triglycerides.
# The rate of incorporation of [^14C] oleate into cholesteryl [^14C] oleate and [^14C] triglycerides by monolayers of NPC1^−/− cells and CHO-7 cells was measured as described previously. In brief, cells were switched to medium containing LPDS supplemented with compactin and mevolonate at 16 h before the experiments. On the day of the experiment, cells were incubated for 4 h with fresh medium containing FCS as a source of cholesterol-containing lipoproteins. Cells were then pulse –labeled for 2 h with 0.1 mM sodium [^14C] oleate. Cells were then washed, and the lipids were extracted in hexane:isopropanol (3:2, vol:vol), separated on a silica gel G thin-layer chromatogram (developed in heptane:ethylether:acetic acid, 90:30:1), and quantified by scintillation counting with the use of an internal standard for recovery.
SMILES,"cholesteryl [14C] oleate formed, Repeat 1 (0.06 uM compound)","cholesteryl [14C] oleate formed, Repeat 2 (0.06 uM compound)","cholesteryl [14C] oleate formed, Repeat 1 (0.1 uM compound)","cholesteryl [14C] oleate formed, Repeat 2 (0.1 uM compound)","cholesteryl [14C] oleate formed, Repeat 3 (0.1 uM compound)","cholesteryl [14C] oleate formed, Repeat 4 (0.1 uM compound)","cholesteryl [14C] oleate formed, Repeat 1 (0.3 uM compound)","cholesteryl [14C] oleate formed, Repeat 2 (0.3 uM compound)","cholesteryl [14C] oleate formed, Repeat 3 (0.3 uM compound)","cholesteryl [14C] oleate formed, Repeat 4 (0.3 uM compound)","cholesteryl [14C] oleate formed, Repeat 1 (1 uM compound)","cholesteryl [14C] oleate formed, Repeat 2 (1 uM compound)","cholesteryl [14C] oleate formed, Repeat 3 (1 uM compound)","cholesteryl [14C] oleate formed, Repeat 4 (1 uM compound)",IC50,further results
CCC(C)n1ncn(-c2ccc(N3CCN(c4ccc(OCC5COC(Cn6cncn6)(c6ccc(Cl)cc6Cl)O5)cc4)CC3)c(Br)c2)c1=O (centres unmarked) [I-Br],4.324 nanomoles formed per hour per milligram cell protein,4.164 nanomoles formed per hour per milligram cell protein,3.9836 nanomoles formed per hour per milligram cell protein,4.202 nanomoles formed per hour per milligram cell protein,4.772 nanomoles formed per hour per milligram cell protein,3.292 nanomoles formed per hour per milligram cell protein,1.539 nanomoles formed per hour per milligram cell protein,1.1254 nanomoles formed per hour per milligram cell protein,1.245 nanomoles formed per hour per milligram cell protein,1.037 nanomoles formed per hour per milligram cell protein,0.2467 nanomoles formed per hour per milligram cell protein,0.5544 nanomoles formed per hour per milligram cell protein,0.5005 nanomoles formed per hour per milligram cell protein,0.5131 nanomoles formed per hour per milligram cell protein,200 nM and ~200 nM,"cholesteryl [14C] oleate formed, Repeat 1 (0.01 uM compound): 4.59 nanomoles formed per hour per milligram cell protein; cholesteryl [14C] oleate formed, Repeat 2 (0.01 uM compound): 4.968 nanomoles formed per hour per milligram cell protein; cholesteryl [14C] oleate formed, Repeat 3 (0.01 uM compound): 4.668 nanomoles formed per hour per milligram cell protein; cholesteryl [14C] oleate formed, Repeat 4 (0.01 uM compound): 4.998 nanomoles formed per hour per milligram cell protein; cholesteryl [14C] oleate formed, Repeat 1 (0.03 uM compound): 5.377 nanomoles formed per hour per milligram cell protein; cholesteryl [14C] oleate formed, Repeat 2 (0.03 uM compound): 4.886 nanomoles formed per hour per milligram cell protein; cholesteryl [14C] oleate formed, Repeat 3 (0.03 uM compound): 4.708 nanomoles formed per hour per milligram cell protein; cholesteryl [14C] oleate formed, Repeat 4 (0.03 uM compound): 4.077 nanomoles formed per hour per milligram cell protein; cholesteryl [14C] oleate formed, Repeat 3 (0.06 uM compound): 4.605 nanomoles formed per hour per milligram cell protein; cholesteryl [14C] oleate formed, Repeat 4 (0.06 uM compound): 3.966 nanomoles formed per hour per milligram cell protein"
"CC(=O)N1CCN(c2ccc(OCC3COC(Cn4ccnc4)(c4ccc(Cl)cc4Cl)O3)cc2)CC1 (centres unmarked) [Ketoconazole, ketoconazole]",5.105 nanomoles formed per hour per milligram cell protein,4.499 nanomoles formed per hour per milligram cell protein,5.133 nanomoles formed per hour per milligram cell protein,5.266 nanomoles formed per hour per milligram cell protein,5.665 nanomoles formed per hour per milligram cell protein,5.29 nanomoles formed per hour per milligram cell protein,4.872 nanomoles formed per hour per milligram cell protein,4.637 nanomoles formed per hour per milligram cell protein,4.5308 nanomoles formed per hour per milligram cell protein,5.341 nanomoles formed per hour per milligram cell protein,4.011 nanomoles formed per hour per milligram cell protein,4.3222 nanomoles formed per hour per milligram cell protein,3.625 nanomoles formed per hour per milligram cell protein,4.546 nanomoles formed per hour per milligram cell protein,> 1000 nM,inhibition of NPC1-mediated cholesterol transport (result in words): did not inhibit
